Results as given in patent publication US20250049926A1, “PHARMACEUTICAL COMPOSITIONS COMPRISING MODIFIED BETACYCLODEXTRINS” (priority 2021, published 2025).

Legend:
[1] = Formulation stability with SBE-beta-CD (assay and impurities by HPLC, stressed storage); assay type: physicochemical
Description: 500 mL batches of each formulation (target pH 4.0 and pH 5.5) are prepared according to the recipe in Table 2 below. The vials used were 50 mL 20 mm Crown, type I, Vial (Gerresheimer), part number 80018303030. The stoppers used were 20 mm S10-F451 Stopper 4432/50 Gray, (Flurotec™ On Plug Only) B2-40 Coating Westar RS part number 19700021.
Each formulation is filtered with a 0.22 μm nylon syringe filter. Vials are filled with 10 mL of formulation, stoppered, sealed and placed at 40° C./75% relative humidity (RH) or at 60° C. (uncontrolled humidity) for up to 14 days. Each vial is placed inverted so that maximum stopper contact with the solution during the stability conditions can be achieved. At each time-point, vials from both conditions and formulations are pulled and analyzed for assay and impurities.
The assay and impurities as measured using the same HPLC method as used for assessing solubility.

[2] = Solubility in water as a function of pH; assay type: physicochemical; conditions: aqueous buffer, pH≥4.5 (practically insoluble)
Description: (§1) The compound of formula (I) as a free base compound has a quite strong lipophilic behavior (Log P 4.13). […] Taking into account these characteristics, and based on pH requirements for intravenous (IV) solutions which is generally set ≥4.0, solubility studies were carried out to identify solubilizers able to substantially increase the aqueous solubility of the compound of formula (I).

Log P of free base = assay type: physicochemical
Description: as §1

mouse tumor models = test: Single agent administration in mouse tumor models; assay type: in vivo
Text: However the compound of formula (I) has low aqueous solubility, leading to the possibility of limited exposure in humans.

[3] = Formulation pH 4.0 (2 mg/mL, SBE-beta-CD 40 mg/mL), 40° C./75% RH, time zero, pH exp 4.1
[4] = Formulation pH 4.0, 40° C./75% RH, Day 1, pH exp 4.1
[5] = Formulation pH 4.0, 40° C./75% RH, Day 3, pH exp 4.0
[6] = Formulation pH 4.0, 40° C./75% RH, Day 7, pH exp 4.1
[7] = Formulation pH 4.0, 40° C./75% RH, Day 14, pH exp 4.1
[8] = Formulation pH 4.0, 60° C., Day 1, pH exp 4.1
[9] = Formulation pH 4.0, 60° C., Day 3, pH exp 4.1
[10] = Formulation pH 4.0, 60° C., Day 7, pH exp 4.1
[11] = Formulation pH 4.0, 60° C., Day 14, pH exp 4.1
[12] = Formulation pH 4.0, 60° C., time zero, pH exp 4.1
[13] = Formulation pH 5.5 (2 mg/mL, SBE-beta-CD 40 mg/mL), 40° C./75% RH, time zero, pH exp 5.6
[14] = Formulation pH 5.5, 40° C./75% RH, Day 1, pH exp 5.6
[15] = Formulation pH 5.5, 40° C./75% RH, Day 3, pH exp 5.6
[16] = Formulation pH 5.5, 40° C./75% RH, Day 7, pH exp 5.7
[17] = Formulation pH 5.5, 40° C./75% RH, Day 14, pH exp 5.6
[18] = Formulation pH 5.5, 60° C., Day 1, pH exp 5.6
[19] = Formulation pH 5.5, 60° C., Day 3, pH exp 5.6
[20] = Formulation pH 5.5, 60° C., Day 7, pH exp 5.7
[21] = Formulation pH 5.5, 60° C., Day 14, pH exp 5.7
[22] = Formulation pH 5.5, 60° C., time zero, pH exp 5.6

- stability of formulation with SBE-beta-CD ([1]; 60° C. stressed conditions, formulation at pH 5.5 compared to pH 4.0): lower impurities and lower loss of assay
- Assay (% of theoretical value of compound of formula (I)) [1, 3]: 96.8%
- Total impurities [1, 3]: 1.1 % area
- Assay (% of theoretical value of compound of formula (I)) [1, 4]: 98.1%
- Total impurities [1, 4]: 1.1 % area
- Assay (% of theoretical value of compound of formula (I)) [1, 5]: 98.7%
- Total impurities [1, 5]: 1.3 % area
- Assay (% of theoretical value of compound of formula (I)) [1, 6]: 103.1%
- Total impurities [1, 6]: 1.3 % area
- Assay (% of theoretical value of compound of formula (I)) [1, 7]: 97.7%
- Total impurities [1, 7]: 1.4 % area
- Assay (% of theoretical value of compound of formula (I)) [1, 8]: 97.9%
- Total impurities [1, 8]: 1.4 % area
- Assay (% of theoretical value of compound of formula (I)) [1, 9]: 98.3%
- Total impurities [1, 9]: 2.0 % area
- Assay (% of theoretical value of compound of formula (I)) [1, 10]: 97.9%
- Total impurities [1, 10]: 3.4 % area
- Assay (% of theoretical value of compound of formula (I)) [1, 11]: 87.0%
- Total impurities [1, 11]: 4.7 % area
- Assay (% of theoretical value of compound of formula (I)) [1, 12]: 96.8%
- Total impurities [1, 12]: 1.1 % area
- Assay (% of theoretical value of compound of formula (I)) [1, 13]: 99.0%
- Total impurities [1, 13]: 1.1 % area
- Assay (% of theoretical value of compound of formula (I)) [1, 14]: 97.9%
- Total impurities [1, 14]: 1.2 % area
- Assay (% of theoretical value of compound of formula (I)) [1, 15]: 100.6%
- Total impurities [1, 15]: 1.3 % area
- Assay (% of theoretical value of compound of formula (I)) [1, 16]: 100.1%
- Total impurities [1, 16]: 1.2 % area
- Assay (% of theoretical value of compound of formula (I)) [1, 17]: 94.7%
- Total impurities [1, 17]: 1.3 % area
- Assay (% of theoretical value of compound of formula (I)) [1, 18]: 97.9%
- Total impurities [1, 18]: 1.3 % area
- Assay (% of theoretical value of compound of formula (I)) [1, 19]: 100.6%
- Total impurities [1, 19]: 1.5 % area
- Assay (% of theoretical value of compound of formula (I)) [1, 20]: 100.1%
- Total impurities [1, 20]: 2.0 % area
- Assay (% of theoretical value of compound of formula (I)) [1, 21]: 97.7%
- Total impurities [1, 21]: 3.0 % area
- Assay (% of theoretical value of compound of formula (I)) [1, 22]: 99.0%
- Total impurities [1, 22]: 1.1 % area
- stability of formulation with SBE-beta-CD ([1]; pH 4.0 versus pH 5.5 at 40° C./75% RH stressed conditions): similar
- solubility [2]: ≤ 20 µg/mL
- logP (Log P of free base): 4.13
SMILES: COc1cc(N2CCNCC2)ccc1Nc1ncc2c(n1)-n1ccc(C(=O)Nc3c(C)cccc3C)c1CC2 [compound of formula (I)]
- tumor response (mouse tumor models): regressions (and cures)
